The source made the active and inactive calls.
Assays:
cells [1] = assay: cells
[2] = cytotoxicity in KRAS-transformed pancreatic duct cells, primary screen, cell-based, fluorescence, HTS (AID 431); format: functional; conditions: Homo sapiens;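 further: cell line used: HPDE-C7K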
[3] = Shn3 3'UTR reporter inhibitors, dose response, cell-based, Clone20 osteoblasts, firefly luciferase, cherry-picked (AID 624132); format: functional;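 further: firefly luciferase luminescence from reporter carrying the Shn3 3'UTR in osteoblasts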
HT-1080 = assay: cytotoxicity in HT1080 fibrosarcoma cells, cell-based, fluorescence readout (AID 620); format: functional; conditions: Homo sapiens
[4] = HepG2 cell cytotoxicity, dose response, cytotoxicity control for Shn3 inhibitor project, CellTiter-Glo, cherry-picked (AID 624134); format: functional, cell-based
[5] = growth suppression of PTEN-null colon cells, dose response, cell-based, HCT116 PTEN knockout (AID 1047); format: functional;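 further: HCT116 colon tumor cells with PTEN knocked out; cells exposed to compound for 60 hours before readout; potency for loss of cell viability measured by luminescence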
[6] = growth suppression of beta-catenin-knockout colon cells, dose response, cell-based, HCT116, human colon tumor (AID 1045); format: functional;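 further: HCT116 colon tumor cells with beta catenin knocked out; cells exposed to compound for 60 hours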
Protein RecA = molecular target: T1, Protein RecA (Mycobacterium tuberculosis, UniProt P9WHJ3); assay: Fluorescence Cell-Free Homogeneous Dose Retest to Identify Inhibitors of RecA-Intein Splicing Activity. [Related pubchem assays (depositor defined):AID2097, AID2223, AID489010, AID492950]; format: functional
T1 sequence (P9WHJ3 whole entry): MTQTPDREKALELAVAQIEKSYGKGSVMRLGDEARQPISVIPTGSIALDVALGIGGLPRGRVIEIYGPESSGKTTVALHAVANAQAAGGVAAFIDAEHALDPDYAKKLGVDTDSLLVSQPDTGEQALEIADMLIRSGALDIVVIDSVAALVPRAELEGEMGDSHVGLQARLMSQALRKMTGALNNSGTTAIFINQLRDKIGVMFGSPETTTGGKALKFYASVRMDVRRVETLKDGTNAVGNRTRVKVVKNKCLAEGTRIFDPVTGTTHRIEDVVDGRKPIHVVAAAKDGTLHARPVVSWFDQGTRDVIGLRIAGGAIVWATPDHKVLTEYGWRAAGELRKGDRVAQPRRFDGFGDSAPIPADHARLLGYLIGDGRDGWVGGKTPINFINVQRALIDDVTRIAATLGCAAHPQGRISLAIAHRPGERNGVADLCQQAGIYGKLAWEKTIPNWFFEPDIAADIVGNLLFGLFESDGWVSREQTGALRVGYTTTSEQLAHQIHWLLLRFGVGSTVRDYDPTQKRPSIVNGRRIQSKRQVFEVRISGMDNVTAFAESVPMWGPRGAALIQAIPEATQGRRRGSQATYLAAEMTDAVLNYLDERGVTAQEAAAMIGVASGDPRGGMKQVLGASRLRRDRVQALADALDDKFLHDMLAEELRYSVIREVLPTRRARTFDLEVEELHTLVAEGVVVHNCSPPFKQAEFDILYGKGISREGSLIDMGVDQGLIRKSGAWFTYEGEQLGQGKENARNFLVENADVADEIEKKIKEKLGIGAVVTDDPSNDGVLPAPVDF

[7] = molecular target: Luciferin 4-monooxygenase (Photinus pyralis, UniProt P08659); assay: Counter Screen for Luciferase-based Assay Positives. [Related pubchem assays: 620, 618, 411 ]
[8] = cytotoxicity in HPDE-C7 cells, cell-based, fluorescence, HTS (AID 430); format: functional; conditions: Homo sapiens
cells [9] = format: functional, cell-based
cells [10] = format: functional, cell-based; remark: listed apart in the source
[11] = molecular target: T2, Replicative DNA helicase DnaB (Mycobacterium tuberculosis, UniProt P9WMR3); assay: DnaB intein splicing inhibitors, dose response, biochemical, cell-free fluorescence (AID 449749); format: functional
T2 sequence (P9WMR3 whole entry): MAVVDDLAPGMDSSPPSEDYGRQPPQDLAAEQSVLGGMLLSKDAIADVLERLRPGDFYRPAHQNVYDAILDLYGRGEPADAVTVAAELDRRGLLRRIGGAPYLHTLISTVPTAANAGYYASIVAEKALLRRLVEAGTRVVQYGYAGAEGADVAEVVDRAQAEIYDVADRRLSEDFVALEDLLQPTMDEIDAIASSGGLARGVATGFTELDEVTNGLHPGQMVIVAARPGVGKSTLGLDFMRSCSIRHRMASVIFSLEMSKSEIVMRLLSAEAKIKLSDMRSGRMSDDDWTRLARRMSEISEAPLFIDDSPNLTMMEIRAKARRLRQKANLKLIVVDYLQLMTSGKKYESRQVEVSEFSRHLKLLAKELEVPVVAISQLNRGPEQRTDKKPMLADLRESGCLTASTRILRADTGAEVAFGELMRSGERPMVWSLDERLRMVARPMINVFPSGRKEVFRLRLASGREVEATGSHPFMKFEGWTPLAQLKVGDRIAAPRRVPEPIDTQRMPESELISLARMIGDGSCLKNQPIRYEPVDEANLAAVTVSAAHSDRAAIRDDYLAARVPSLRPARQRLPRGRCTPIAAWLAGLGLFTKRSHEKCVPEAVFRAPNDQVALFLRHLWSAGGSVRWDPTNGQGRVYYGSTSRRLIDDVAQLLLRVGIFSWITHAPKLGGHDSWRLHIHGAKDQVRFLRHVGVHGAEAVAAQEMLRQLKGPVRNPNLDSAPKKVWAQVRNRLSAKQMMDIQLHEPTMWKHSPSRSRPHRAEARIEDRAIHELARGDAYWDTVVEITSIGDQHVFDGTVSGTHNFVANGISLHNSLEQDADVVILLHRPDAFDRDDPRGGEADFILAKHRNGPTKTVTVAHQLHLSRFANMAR

[12] = control 3'UTR Renilla luciferase suppression, dose response, counter-screen for Shn3 inhibitor project, cell-based, Clone20-Shn3RL, cherry-picked (AID 624133); format: functional
[13] = molecular target: T3, Neuropeptide Y receptor type 1 (Homo sapiens, UniProt P25929); assay: Fluorescence-based counterscreen for agonists of NPY-Y2: cell-based high-throughput dose response assay for agonists of NPY-Y1.; format: functional
T3 sequence (P25929 whole entry): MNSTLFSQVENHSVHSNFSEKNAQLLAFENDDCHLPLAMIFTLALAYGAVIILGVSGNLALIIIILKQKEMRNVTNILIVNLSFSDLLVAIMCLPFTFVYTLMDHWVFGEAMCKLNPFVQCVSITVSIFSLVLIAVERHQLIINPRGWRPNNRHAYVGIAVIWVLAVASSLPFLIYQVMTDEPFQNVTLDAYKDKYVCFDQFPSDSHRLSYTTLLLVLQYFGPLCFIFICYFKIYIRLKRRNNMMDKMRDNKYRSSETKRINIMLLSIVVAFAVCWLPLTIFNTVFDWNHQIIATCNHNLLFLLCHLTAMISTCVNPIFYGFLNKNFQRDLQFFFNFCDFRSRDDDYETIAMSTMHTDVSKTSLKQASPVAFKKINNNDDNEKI

[14] = molecular target: T4, Neuropeptide Y receptor type 2 (Homo sapiens, UniProt P49146); assay: Fluorescence-based cell-based high-throughput dose response assay for agonists of NPY-Y2. [Related pubchem assays: 1703 (Screening assay (CNGC inhibitors).), 1359 (Screening assay (NPY-Y2 potentiators or agonists).), 1304 (Screening assay (NPY-Y1 potentiators or agonists).), 1710 (Screening assay (NPY-Y2 agonists).), 1791 (Summary AID.)]; format: functional
T4 sequence (P49146 whole entry): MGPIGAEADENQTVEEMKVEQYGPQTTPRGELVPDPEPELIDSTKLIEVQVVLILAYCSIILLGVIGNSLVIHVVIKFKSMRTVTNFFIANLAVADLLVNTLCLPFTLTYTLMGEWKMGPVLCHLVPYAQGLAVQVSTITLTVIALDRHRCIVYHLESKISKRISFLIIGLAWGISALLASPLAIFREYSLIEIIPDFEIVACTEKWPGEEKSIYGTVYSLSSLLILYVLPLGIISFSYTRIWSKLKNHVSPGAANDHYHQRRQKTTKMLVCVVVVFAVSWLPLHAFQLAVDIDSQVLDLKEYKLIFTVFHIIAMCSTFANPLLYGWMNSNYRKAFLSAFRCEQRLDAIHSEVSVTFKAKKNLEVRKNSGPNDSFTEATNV

BJ [15] = assay: cytotoxicity toward BJ-TERT fibroblasts, dose response, cell-based, RAS-independent, luminescence (AID 1933); format: functional; conditions: Homo sapiens
[16] = Luminescence Cell-Based Dose Response HTS to Identify Inhibitors of 5'UTR Stem-Loop Driven Prion Protein mRNA Translation in H4 Neuroglioblastoma Cells. [Related pubchem assays: 1827 (Project Summary), 1813 (Primary HTS)]; format: functional
HEK293 = assay: Fluorescence-based counterscreen for potentiators or agonists of NPY-Y2: cell-based high-throughput dose response assay to identify inhibitors of cyclic nucleotide gated ion channel (CNGC) activity. In this assay, the parental HEK293 cell line transfected with a cyclic-nucleotide gated ion channel (CNGC)-based cAMP sensor is used to measure inhibition of isoproterenol-induced CNGC activity by test compound.; format: functional; conditions: Homo sapiens
[17] = inhibitors of firefly luciferase expression or activity, dose response, H4 neuroglioma cells, luminescence (AID 1990); format: functional, cell-based
[18] = cytotoxicity in HEK-293T cells, dose response, cytotoxicity control for TCR NF-kB inhibitor project, luminescence, T-cell screen hits (AID 489026); format: functional, cell-based;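 further: cells exposed to compound about 14 hours before the viability readout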
BJ [19] = assay: cytotoxicity toward BJ-TERT-LT-ST fibroblasts, dose response, cell-based, RAS-independent, luminescence (AID 1935); format: functional; conditions: Homo sapiens;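 further: BJ fibroblasts immortalized with TERT plus LT and ST oncogenes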
[20] = NIH-3T3 fibroblast cytotoxicity, dose response, cytotoxicity control, cell-based, fluorescence, Alamar Blue, secondary assay (AID 2327); format: functional;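 further: NIH-3T3 mouse fibroblasts cultured with fluconazole at 8 µg/mL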
[21] = cytotoxicity toward DRD oncogenic fibroblasts, dose response, cell-based, non-viral oncogenic, luminescence (AID 1934); format: functional; conditions: Homo sapiens
BJ [22] = assay: cells; format: functional, cell-based; conditions: Homo sapiens
[23] = C. albicans growth with fluconazole, confirmation, fluorescence, retest (AID 2467); format: functional, cell-based
[24] = A Cell Based Secondary Assay To Explore Cytotoxicity of Compounds that Sensitize Mycobacterium Tuberculosis to Beta-Lactam Antibiotics.; format: functional
[25] = LGR2 antagonists, dose response, cell-based, HEK293, CRE-luciferase reporter, cherry pick, set 2 (AID 743343); format: functional;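 further: transfected cells were stimulated with diluted bursicon conditioned medium after compound addition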
[26] = MC4R antagonists, dose response, counter-screen for LGR2 antagonist project, cell-based, plate reader, cherry pick (AID 743444); format: functional;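 further: transfected HEK 293 cells stimulated with alpha-MSH peptide; potency of inhibitors of the alpha-MSH evoked signal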
Vero [27] = assay: Vero cell cytotoxicity, cytotoxicity control for flavivirus capping enzyme inhibitors (AID 588742); format: functional; conditions: Chlorocebus sabaeus
Genome polyprotein = Genome polyprotein (dengue virus type 2, UniProt P29990); assay: Dengue-2 NS5 methyltransferase inhibitors, primary screen, biochemical, confirmation dose response (AID 588689); format: functional
[28] = molecular target: T5, Polyadenylate-binding protein 1 (Homo sapiens, UniProt P11940); assay: PABP1 MLLE–PAM2 interaction inhibitors, dose response, miRNA deadenylation inhibitor project, biochemical, fluorescence polarization, Cy5-PAM2 peptide, secondary (AID 602260); format: functional; conditions: read-out: IC50_Mean
[29] = molecular target: T5, Polyadenylate-binding protein 1; assay: PABP1 MLLE–PAM2 binding inhibitor potency, dose response, biochemical, fluorescence polarization, FITC-PAM2 peptide (AID 602259); format: functional; conditions: read-out: IC50_Mean
[30] = HEp-2 cell cytotoxicity, dose response, cytotoxicity control for RSV inhibitor project, HTS (AID 2410); format: functional; conditions: human respiratory syncytial virus
Vero [31] = assay: cells; format: functional, cell-based; conditions: Chlorocebus sabaeus

T5 sequence (P11940 whole entry): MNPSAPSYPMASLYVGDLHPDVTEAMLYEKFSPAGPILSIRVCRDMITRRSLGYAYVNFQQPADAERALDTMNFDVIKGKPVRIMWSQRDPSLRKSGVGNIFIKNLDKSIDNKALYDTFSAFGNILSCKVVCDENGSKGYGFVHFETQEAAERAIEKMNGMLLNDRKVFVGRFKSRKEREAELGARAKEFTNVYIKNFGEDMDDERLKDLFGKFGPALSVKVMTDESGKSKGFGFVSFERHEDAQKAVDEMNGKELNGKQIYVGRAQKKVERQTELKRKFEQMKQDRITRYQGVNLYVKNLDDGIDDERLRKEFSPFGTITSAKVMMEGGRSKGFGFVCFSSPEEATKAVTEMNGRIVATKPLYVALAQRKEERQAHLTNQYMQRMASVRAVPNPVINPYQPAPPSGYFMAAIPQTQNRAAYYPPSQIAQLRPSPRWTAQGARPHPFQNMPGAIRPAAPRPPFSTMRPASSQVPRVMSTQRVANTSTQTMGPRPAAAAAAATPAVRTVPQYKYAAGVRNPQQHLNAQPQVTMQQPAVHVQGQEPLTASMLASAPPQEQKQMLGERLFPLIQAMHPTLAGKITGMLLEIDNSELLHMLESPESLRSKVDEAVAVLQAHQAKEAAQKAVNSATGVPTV
Chain of Genome polyprotein (P29990 2492-3391 limits assumed): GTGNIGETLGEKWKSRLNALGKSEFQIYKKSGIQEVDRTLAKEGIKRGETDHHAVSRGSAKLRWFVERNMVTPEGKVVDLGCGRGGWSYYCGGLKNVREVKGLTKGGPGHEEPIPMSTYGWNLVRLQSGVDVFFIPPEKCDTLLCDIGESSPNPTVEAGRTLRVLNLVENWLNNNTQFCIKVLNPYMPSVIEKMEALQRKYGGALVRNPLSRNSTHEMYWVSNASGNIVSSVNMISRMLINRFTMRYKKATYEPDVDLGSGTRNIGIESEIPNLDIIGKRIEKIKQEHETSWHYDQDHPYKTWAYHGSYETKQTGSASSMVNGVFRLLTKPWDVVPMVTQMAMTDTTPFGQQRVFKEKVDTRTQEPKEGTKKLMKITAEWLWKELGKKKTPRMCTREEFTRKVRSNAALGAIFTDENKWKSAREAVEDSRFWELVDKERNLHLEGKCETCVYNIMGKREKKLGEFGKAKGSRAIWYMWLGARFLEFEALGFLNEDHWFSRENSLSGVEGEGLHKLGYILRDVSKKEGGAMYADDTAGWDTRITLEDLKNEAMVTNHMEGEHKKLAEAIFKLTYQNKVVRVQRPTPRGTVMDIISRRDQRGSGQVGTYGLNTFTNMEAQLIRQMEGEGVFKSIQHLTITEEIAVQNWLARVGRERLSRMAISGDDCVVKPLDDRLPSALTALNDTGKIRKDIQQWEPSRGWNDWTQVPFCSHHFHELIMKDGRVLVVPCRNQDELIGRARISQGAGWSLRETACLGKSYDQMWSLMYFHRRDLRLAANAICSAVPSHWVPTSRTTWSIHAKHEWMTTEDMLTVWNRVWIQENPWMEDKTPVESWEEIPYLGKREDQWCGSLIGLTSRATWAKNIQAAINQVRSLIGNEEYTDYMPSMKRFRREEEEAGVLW
Chain of Luciferin 4-monooxygenase (P08659 whole entry): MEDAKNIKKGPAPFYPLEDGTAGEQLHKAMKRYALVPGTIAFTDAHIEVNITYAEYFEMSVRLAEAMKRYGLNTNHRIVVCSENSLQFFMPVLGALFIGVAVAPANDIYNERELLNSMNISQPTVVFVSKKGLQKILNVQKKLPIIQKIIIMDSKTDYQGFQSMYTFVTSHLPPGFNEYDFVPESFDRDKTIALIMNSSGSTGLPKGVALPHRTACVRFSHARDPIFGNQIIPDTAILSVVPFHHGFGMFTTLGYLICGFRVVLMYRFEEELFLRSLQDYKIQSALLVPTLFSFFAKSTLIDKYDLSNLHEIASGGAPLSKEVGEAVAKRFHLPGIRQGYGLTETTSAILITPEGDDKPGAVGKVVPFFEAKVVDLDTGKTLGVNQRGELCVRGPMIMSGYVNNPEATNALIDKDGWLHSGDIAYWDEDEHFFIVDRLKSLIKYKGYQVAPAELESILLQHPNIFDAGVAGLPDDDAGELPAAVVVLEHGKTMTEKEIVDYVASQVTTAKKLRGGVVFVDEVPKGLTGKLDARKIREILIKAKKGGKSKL

## COc1ccc(S(=O)(=O)NC(C)(C)C)cc1-c1nnc2c3ccccc3c(C)nn12
Cells [1]
  IC50: 8.97 µM (active)

## COc1ccccc1-c1cc(C(F)(F)F)nc(S(=O)(=O)CCCC(=O)N2CCOCC2)n1
[2]
  EC50: 6.34 µM (active)
[3]
  AC50: 3.02 µM (active)
HT-1080
  EC50: 30.8 µM (active)
[4]
  AC50: 23.2 µM (active)
[5]
  EC50: 19.2 µM (active)
[6]
  EC50: 34.4 µM (active)
Protein RecA
  EC50: 4.26 µM (active)
[7]
  EC50: 4.85 µM (active)
[8]
  EC50: 9.95 µM (active)
Cells [9]
  EC50: > 350 µM (not active)
Cells [10]
  EC50: > 350 µM (not active)
[11]
  AC50: 8.15 µM (active)
[12]
  AC50: 10.2 µM (active)

## CN(C)c1ccc(-[n+]2c(-c3ccccc3)cc(-c3ccccc3)cc2-c2ccccc2)cc1.[O-][Cl+3]([O-])([O-])[O-]
[13]
  EC50: 24.4 µM (not active)
[14]
  EC50: > 35.4 µM (not active)
BJ [15]
  EC50: 2.81 µM (active)
[16]
  EC50: > 120 µM (not active)
HEK293
  EC50: > 35.4 µM (not active)
[17]
  EC50: 8.27 µM (active)
[18]
  IC50: 55.4 µM (inactive)
BJ [19]
  EC50: 3 µM (inconclusive)
[20]
  EC50: 4.87 µM (active)
[21]
  EC50: 3.14 µM (active)
BJ [22]
  EC50: 3.14 µM (active)
[23]
  EC50: 0.132 µM (active)

## O=C(c1ccccc1)N1CCC(CC2CC(c3cccc(Br)c3)=NO2)(C(=O)NCC2CCCCC2)CC1 (stereo unspecified)
[24]
  CC50: > 40 µM (active)

## Cc1ccc(C(=O)n2nc(-n3cccc3)c3c(C)cc(C)nc32)cc1
[13]
  EC50: > 35.4 µM (not active)
[14]
  EC50: > 35.4 µM (not active)
HEK293
  EC50: > 35.4 µM (not active)
[25]
  AC50: 13.9 µM (active)
[26]
  AC50: 1.22 µM (active)

## COc1cc(C(=S)N2CCN(c3ccccc3Cl)CC2)cc(O)c1O
[13]
  EC50: > 35.4 µM (not active)
[14]
  EC50: > 35.4 µM (not active)
Vero [27]
  CC50: > 40 µM (active)
HEK293
  EC50: > 35.4 µM (not active)
Genome polyprotein
  IC50: > 100 µM (active)
[28]
  IC50: > 66 µM (inactive)
[29]
  IC50: > 66 µM (inactive)
[20]
  EC50: > 150 µM (inactive)
[23]
  EC50: > 38 µM (not active)

## Cc1[nH]c(C)c(S(=O)(=O)N2CCN(c3cccc(C(F)(F)F)c3)CC2)c1C(=O)N1CCCCC1
Cells [1]
  IC50: 23.3 µM (active)
[30]
  CC50: 17.6 µM (active)
Vero [31]
  IC50: 22.4 µM (active)

## CCC(=O)NC(=S)Nc1ccc(NC(=O)COc2ccc(Cl)c(C)c2)cc1
Cells [1]
  IC50: 39 µM (active)
[30]
  CC50: > 50 µM (active)
